Patent US10800791B2, “Triazole ACC inhibitors and uses thereof” (Gilead Apollo, LLC, priority 2015, dated 2020)
In brackets after ≈: the same amount, converted by molar mass. Where two headings read alike, the source gives them in different places.

Experiments:
human (hACC2) = human (hACC2) (Homo sapiens, UniProt O00763); test: In vitro ACC inhibition assay (ADP-Glo), hACC2; assay type: biochemical; conditions: 5 nM ACC2, 20 μM ATP, 20 μM acetyl-CoA
Method: The detailed procedure is as follows. […] 10 μL ADP glo reagent was added. […] 20 μL kinase detection reagent was added.

Rhizoctonia solani (Rs) = test: Growth inhibition assay of fungal pathogens, Rs; assay type: cell-based; conditions: 48 h
Method: Compounds of the present invention were evaluated in a growth inhibition assay to determine the ability to control the growth of fungal pathogens, such as Botrtyis cinerea (Bc), Collectotrichum graminicola (Cg), Diplodia maydis (Dm), Fusarium moniliforme (Fm), Fusarium virguliforme (Fv), Phytophthora capsici (Pc), Rhizoctonia solani (Rs), and Septoria tritici (St).
Compounds to be tested were dissolved in DMSO at 2.5 mg/ml to produce compound stock solutions (“stocks”). Stocks were diluted with DMSO by a five-fold dilution in a 96-well stock plate, and two sets of final concentrations of 50, 10, and 2 ppm or 2, 0.4, and 0.08 ppm were obtained in vitro. A set of positive controls was also prepared, with various concentrations of Soraphen (2, 0.4, and 0.08 ppm), Metalaxyl (1.1, 0.22, and 0.04 ppm), and Metconazole (2, 0.4, and 0.08 ppm or 0.2, 0.04, and 0.008 ppm) after the five-fold dilutions. Negative controls on each plate included 2% DMSO, water, and a blank (media+2% DMSO).
Fungal spores were isolated from previously sub-cultured plates of Botrtyis cinerea (Bc), Collectotrichum graminicola (Cg), Diplodia maydis (Dm), Fusarium moniliforme (Fm), Fusarium virguliforme (Fv), Phytophthora capsici (Pc), and Septoria tritici (St). The isolated spores were diluted to individual concentrations with a 17% V8 liquid media. For Rhizoctonia solani (Rs) and Pythium irregulare, 1.5 mm mycelial plugs were used in place of spores and/4 Potato Dextrose Broth (PDB) was used for dilution. The spore concentrations and plug sizes were based on growth curves generated at 48 hours for each pathogen.
In a second 96-well plate, the spores or mycelial plugs, media, diluted compound solutions, and controls were combined. Once the compound was added, a true final concentration of compound in each well was measured by an OD600 reading, which adjusted for any compound precipitation that might have occurred in the well. Plate readings were repeated at both 24 and 48 hours. The blank negative control was used as a background subtraction. Additional visual ratings were performed at both 24 and 48 hours for checking on precipitation and confirming efficacy. Visual and OD600 ratings of the compounds at 48 hours were compared to the 2% DMSO negative control, and the percent of pathogen growth inhibition was determined based on those values.

[1] = mycelial plugs, growth inhibition at 48 hours vs 2% DMSO control, read-out: Concentration at 90% Inhibition Rs
[2] = mycelial plugs, growth inhibition vs 2% DMSO control at 48 hours, read-out: Concentration at 90% Inhibition Rs
[3] = read-out: Concentration at 90% Inhibition Rs, Rhizoctonia solani, mycelial plugs, growth inhibition at 48 hours vs 2% DMSO control
[4] = read-out: Concentration at 90% Inhibition Rs, Rhizoctonia solani, mycelial plugs, growth inhibition vs 2% DMSO control at 48 hours

Chain of human (hACC2) (O00763 whole entry): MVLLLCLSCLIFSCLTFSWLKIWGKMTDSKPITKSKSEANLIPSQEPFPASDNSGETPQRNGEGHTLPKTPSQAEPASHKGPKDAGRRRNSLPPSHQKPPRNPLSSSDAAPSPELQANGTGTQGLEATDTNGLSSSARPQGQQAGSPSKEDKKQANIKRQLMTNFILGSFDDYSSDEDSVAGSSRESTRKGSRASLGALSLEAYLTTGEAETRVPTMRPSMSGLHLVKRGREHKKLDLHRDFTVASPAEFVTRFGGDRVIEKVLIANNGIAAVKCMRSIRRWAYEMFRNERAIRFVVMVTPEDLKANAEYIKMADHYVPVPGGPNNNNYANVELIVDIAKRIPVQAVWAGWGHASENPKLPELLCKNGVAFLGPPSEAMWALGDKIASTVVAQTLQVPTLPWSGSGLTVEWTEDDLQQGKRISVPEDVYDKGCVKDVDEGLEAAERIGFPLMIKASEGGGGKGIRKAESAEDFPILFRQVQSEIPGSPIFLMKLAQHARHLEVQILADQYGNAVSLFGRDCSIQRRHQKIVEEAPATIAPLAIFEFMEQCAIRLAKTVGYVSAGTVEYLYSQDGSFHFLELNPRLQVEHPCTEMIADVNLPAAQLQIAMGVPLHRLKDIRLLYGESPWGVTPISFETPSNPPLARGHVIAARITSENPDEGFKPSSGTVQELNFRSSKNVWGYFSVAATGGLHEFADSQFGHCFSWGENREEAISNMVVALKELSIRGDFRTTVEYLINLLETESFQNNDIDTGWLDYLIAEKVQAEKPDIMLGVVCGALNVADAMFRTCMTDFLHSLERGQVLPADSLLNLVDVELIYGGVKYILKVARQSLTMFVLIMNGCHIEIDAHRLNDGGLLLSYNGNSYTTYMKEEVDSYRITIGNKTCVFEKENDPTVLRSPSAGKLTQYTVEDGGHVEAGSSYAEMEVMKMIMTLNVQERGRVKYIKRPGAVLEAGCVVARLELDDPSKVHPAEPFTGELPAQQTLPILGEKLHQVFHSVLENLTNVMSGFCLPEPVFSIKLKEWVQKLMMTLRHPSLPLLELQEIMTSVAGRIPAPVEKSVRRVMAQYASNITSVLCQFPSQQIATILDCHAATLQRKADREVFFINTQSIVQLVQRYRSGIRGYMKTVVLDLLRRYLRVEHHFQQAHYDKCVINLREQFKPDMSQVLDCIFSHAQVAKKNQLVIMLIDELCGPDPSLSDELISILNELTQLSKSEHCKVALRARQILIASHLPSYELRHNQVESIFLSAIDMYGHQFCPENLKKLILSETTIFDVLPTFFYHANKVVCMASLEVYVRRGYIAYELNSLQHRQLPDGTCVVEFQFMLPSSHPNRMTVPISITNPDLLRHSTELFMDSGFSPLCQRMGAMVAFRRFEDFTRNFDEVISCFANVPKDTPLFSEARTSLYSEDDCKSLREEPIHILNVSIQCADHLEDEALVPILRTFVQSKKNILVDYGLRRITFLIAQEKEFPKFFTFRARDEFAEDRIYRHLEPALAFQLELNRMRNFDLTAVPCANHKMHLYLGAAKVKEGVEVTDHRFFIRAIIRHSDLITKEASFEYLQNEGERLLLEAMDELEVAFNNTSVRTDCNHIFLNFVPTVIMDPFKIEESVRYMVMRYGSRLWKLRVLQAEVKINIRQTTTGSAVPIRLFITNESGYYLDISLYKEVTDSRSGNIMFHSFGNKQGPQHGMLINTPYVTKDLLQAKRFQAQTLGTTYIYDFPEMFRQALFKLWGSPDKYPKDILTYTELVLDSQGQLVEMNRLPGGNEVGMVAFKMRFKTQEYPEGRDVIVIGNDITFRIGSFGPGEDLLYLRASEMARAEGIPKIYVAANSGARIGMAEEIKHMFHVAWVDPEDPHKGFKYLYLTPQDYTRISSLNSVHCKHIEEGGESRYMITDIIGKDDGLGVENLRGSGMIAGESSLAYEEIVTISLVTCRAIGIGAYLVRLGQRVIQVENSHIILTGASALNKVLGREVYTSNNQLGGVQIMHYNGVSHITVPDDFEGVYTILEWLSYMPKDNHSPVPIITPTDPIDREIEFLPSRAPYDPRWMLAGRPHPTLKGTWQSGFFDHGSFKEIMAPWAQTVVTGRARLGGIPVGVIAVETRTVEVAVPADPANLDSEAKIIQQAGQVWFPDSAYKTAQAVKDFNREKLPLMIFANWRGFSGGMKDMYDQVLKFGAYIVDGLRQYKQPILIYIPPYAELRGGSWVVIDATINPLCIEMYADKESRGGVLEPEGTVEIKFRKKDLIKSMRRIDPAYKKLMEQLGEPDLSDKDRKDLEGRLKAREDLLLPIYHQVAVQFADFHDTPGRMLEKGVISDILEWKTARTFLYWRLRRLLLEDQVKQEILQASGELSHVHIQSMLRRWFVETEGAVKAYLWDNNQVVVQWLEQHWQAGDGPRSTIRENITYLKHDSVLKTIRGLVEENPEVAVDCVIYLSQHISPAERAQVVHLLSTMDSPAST

Structure (SMILES)	IC50 (human (hACC2); Table 2a) [nM]	IC50 (human (hACC2); Table 2b, additional results) [nM]	IC90 (Rhizoctonia solani (Rs); [1]) [µg/mL]	IC90 (Rhizoctonia solani (Rs); [2]) [µg/mL]	IC90 (Rhizoctonia solani (Rs); [3]) [µg/mL]	IC90 (Rhizoctonia solani (Rs); [4]) [µg/mL]
COc1ccccc1[C@H](Cn1c(=O)n(C(C)(C)C(=O)NC2CCC2)c(=O)c2c(C)c(-n3nccn3)sc21)OC1CCOCC1 [Compound I-20, (R)—N-cyclobutyl-2-(1-(2-(2-methoxyphenyl)-2-((tetrahydro-2H-pyran-4-yl)oxy)ethyl)-5-methyl-2,4-dioxo-6-(2H-1,2,3-triazol-2-yl)-1,4-dihydrothieno[2,3-d]pyrimidin-3(2H)-yl)-2-methylpropanamide]	5 to 10	5 to 10	0.08 (≈ 0.128 µM)	0.08 (≈ 0.128 µM)	–	–
COc1ccccc1[C@H](Cn1c(=O)n(C(C)(C)C(=O)NC2CCCCC2)c(=O)c2c(C)c(-n3nccn3)sc21)OC1CCOCC1 [Compound I-21, (R)—N-cyclohexyl-2-(1-(2-(2-methoxyphenyl)-2-((tetra-hydro-2H-pyran-4-yl)oxy)ethyl)-5-methyl-2,4-dioxo-6-(2H-1,2,3-triazol-2-yl)-1,4-dihydrothieno[2,3-d]pyrimidin-3(2H)-yl)-2-methylpropanamide]	5 to 10	5 to 10	–	–	0.4 (≈ 0.615 µM)	0.4 (≈ 0.615 µM)
CCNC(=O)C(C)(C)n1c(=O)c2c(C)c(-n3nccn3)sc2n(C[C@H](OC2CCOCC2)c2cc(F)ccc2OC)c1=O [Compound I-22, (R)—N-ethyl-2-(1-(2-(5-fluoro-2-methoxyphenyl)-2-((tetrahydro-2H-pyran-4-yl)oxy)ethyl)-5-methyl-2,4-dioxo-6-(2H-1,2,3-triazol-2-yl)-1,4-dihydrothieno[2,3-d]pyrimidin-3(2H)-yl)-2-methylpropanamide]	5 to 10	5 to 10	0.4 (≈ 0.651 µM)	0.4 (≈ 0.651 µM)	–	–
COc1ccc(F)cc1[C@H](Cn1c(=O)n(C(C)(C)C(=O)NC(C)C)c(=O)c2c(C)c(-n3nccn3)sc21)OC1CCOCC1 [Compound I-23, (R)-2-(1-(2-(5-fluoro-2-methoxyphenyl)-2-((tetrahydro-2H-pyran-4-yl)oxy)ethyl)-5-methyl-2,4-dioxo-6-(2H-1,2,3-triazol-2-yl)-1,4-dihydro-thieno[2,3-d]pyrimidin-3(2H)-yl)-N-isopropyl-2-methylpropanamide]	5 to 10	5 to 10	–	–	0.08 (≈ 0.127 µM)	0.08 (≈ 0.127 µM)
COc1ccc(F)cc1[C@H](Cn1c(=O)n(C(C)(C)C(=O)N2CCCC2)c(=O)c2c(C)c(-n3nccn3)sc21)OC1CCOCC1 [Compound I-25]	5 to 10	5 to 10	0.08 (≈ 0.125 µM)	0.08 (≈ 0.125 µM)	–	–
COc1ccc(F)cc1[C@H](Cn1c(=O)n(CC(=O)N2CCCC2)c(=O)c2c(C)c(-n3nccn3)sc21)OC(C)C [Compound I-36, (R)-1-(2-(5-fluoro-2-methoxyphenyl)-2-isopropoxyethyl)-5-methyl-3-(2-oxo-2-(pyrrolidin-1-yl)ethyl)-6-(2H-1,2,3-triazol-2-yl)thieno[2,3-d]pyrimidine-2,4(1H,3H)-dione]	1 to 5	1 to 5	0.4 (≈ 0.701 µM)	0.4 (≈ 0.701 µM)	–	–
COc1ccc(F)cc1[C@H](Cn1c(=O)n([C@@H](C)C(=O)NC(C)C)c(=O)c2c(C)c(-n3nccn3)sc21)OC(C)C [Compound I-37, (S)-2-(1-((R)-2-(5-fluoro-2-methoxyphenyl)-2-isopropoxyethyl)-5-methyl-2,4-dioxo-6-(2H-1,2,3-triazol-2-yl)-1,4-dihydrothieno[2,3-d]pyrimidin-3(2H)-yl)-N-isopropylpropanamide]	5 to 10	5 to 10	–	–	0.4 (≈ 0.698 µM)	0.4 (≈ 0.698 µM)
COc1ccc(F)cc1[C@H](Cn1c(=O)n([C@H](C)C(=O)NC(C)C)c(=O)c2c(C)c(-n3nccn3)sc21)OC(C)C [Compound I-38, (R)-2-(1-((R)-2-(5-fluoro-2-methoxyphenyl)-2-isopropoxy-ethyl)-5-methyl-2,4-dioxo-6-(2H-1,2,3-triazol-2-yl)-1,4-dihydrothieno[2,3-d]pyrimidin-3(2H)-yl)-N-isopropylpropanamide]	5 to 10	5 to 10	–	–	0.4 (≈ 0.698 µM)	0.4 (≈ 0.698 µM)
COc1ccc(F)cc1[C@H](Cn1c(=O)n([C@@H](C)C(=O)N2CCCC2)c(=O)c2c(C)c(-n3nccn3)sc21)OC(C)C [Compound I-39, 1-((R)-2-(5-fluoro-2-methoxyphenyl)-2-isopropoxyethyl)-5-methyl-3-((S)-1-oxo-1-(pyrrolidin-1-yl)propan-2-yl)-6-(2H-1,2,3-triazol-2-yl)thieno[2,3-d]pyrimidine-2,4(1H,3H)-dione]	5 to 10	1 to 5	0.4 (≈ 0.684 µM)	0.4 (≈ 0.684 µM)	–	–
COc1ccc(F)cc1[C@H](Cn1c(=O)n(C(C)C(=O)N2CCCC2)c(=O)c2c(C)c(-n3nccn3)sc21)OC(C)C (stereo partly drawn) [Compound I-40, 1-((R)-2-(5-fluoro-2-methoxyphenyl)-2-isopropoxyethyl)-5-methyl-3-(1-oxo-1-(pyrrolidin-1-yl)propan-2-yl)-6-(2H-1,2,3-triazol-2-yl)thieno[2,3-d]pyrimidine-2,4(1H,3H)-dione]	5 to 10	5 to 10	0.4 (≈ 0.684 µM)	0.08 (≈ 0.137 µM)	–	–
COc1ccc(F)cc1[C@H](Cn1c(=O)n(C(C)(C)C(=O)NC(C)C)c(=O)c2c(C)c(-n3nccn3)sc21)OCC(C)(C)O [Compound I-57, (R)-2-(1-(2-(5-fluoro-2-methoxyphenyl)-2-(2-hydroxy-2-methylpropoxy)ethyl)-5-methyl-2,4-dioxo-6-(2H-1,2,3-triazol-2-yl)-1,4-dihydro-thieno[2,3-d]pyrimidin-3(2H)-yl)-N-isopropyl-2-methylpropanamide]	10 to 40	10 to 40	–	–	0.4 (≈ 0.649 µM)	0.4 (≈ 0.649 µM)
COc1ccc(F)cc1[C@H](Cn1c(=O)n(C(C)(C)C(=O)N2CCCC2)c(=O)c2c(C)c(-n3nccn3)sc21)OCC(C)(C)O [Compound I-58, (R)-1-(2-(5-fluoro-2-methoxyphenyl)-2-(2-hydroxy-2-methylpropoxy)ethyl)-5-methyl-3-(2-methyl-1-oxo-1-(pyrrolidin-1-yl)propan-2-yl)-6-(2H-1,2,3-triazol-2-yl)thieno[2,3-d]pyrimidine-2,4(1H,3H)-dione]	10 to 40	10 to 40	0.4 (≈ 0.636 µM)	0.4 (≈ 0.636 µM)	–	–
COCCO[C@@H](Cn1c(=O)n(C(C)(C)C(=O)NC(C)C)c(=O)c2c(C)c(-n3nccn3)sc21)c1cc(F)ccc1OC [Compound I-59, (R)-2-(1-(2-(5-fluoro-2-methoxyphenyl)-2-(2-methoxy-ethoxy)ethyl)-5-methyl-2,4-dioxo-6-(2H-1,2,3-triazol-2-yl)-1,4-dihydro-thieno[2,3-d]pyrimidin-3(2H)-yl)-N-isopropyl-2-methylpropanamide]	5 to 10	5 to 10	–	–	0.4 (≈ 0.664 µM)	0.4 (≈ 0.664 µM)
COCCO[C@@H](Cn1c(=O)n(C(C)(C)C(=O)N2CCCC2)c(=O)c2c(C)c(-n3nccn3)sc21)c1cc(F)ccc1OC [Compound I-60, (R)-1-(2-(5-fluoro-2-methoxyphenyl)-2-(2-methoxy-ethoxy)ethyl)-5-methyl-3-(2-methyl-1-oxo-1-(pyrrolidin-1-yl)propan-2-yl)-6-(2H-1,2,3-triazol-2-yl)thieno[2,3-d]pyrimidine-2,4(1H,3H)-dione]	10 to 40	10 to 40	> 50	> 50	–	–
COCCOc1ccc(F)cc1[C@H](Cn1c(=O)n(C(C)(C)C(=O)NC(C)C)c(=O)c2c(C)c(-n3nccn3)sc21)OC1CCOCC1 [Compound I-61, (R)-2-(1-(2-(5-fluoro-2-(2-methoxyethoxy)phenyl)-2-((tetrahydro-2H-pyran-4-yl)oxy)ethyl)-5-methyl-2,4-dioxo-6-(2H-1,2,3-triazol-2-yl)-1,4-dihydrothieno[2,3-d]pyrimidin-3(2H)-yl)-N-isopropyl-2-methylpropanamide]	5 to 10	5 to 10	0.08 (≈ 0.119 µM)	0.08 (≈ 0.119 µM)	–	–
